Tests used:
[1] = target: T1, COS-7/AMY3 (human calcitonin receptor (CTR) and RAMP3) (Homo sapiens, UniProt O60896+P30988); assay: Amylin Receptor cAMP Assay II; assay type: cell-based; conditions: values marked **: Amylin Receptor cAMP Assay II; COS-7/AMY3 cells, cAMP dynamic 2 kit, 30 min; read-out: Amylin Receptor cAMP Stimulation Activity: EC50
T1 construct: expressed in transfected cells; host or cells: COS-7
Summary of the method: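 COS-7 cells stably co-expressing human CTR and RAMP3 (AMY3), 2000 cells/well in HBSS with 20 mM HEPES, 0.5 mM IBMX, 0.1% casein, stimulated with compound for 30 min at 37 °C. cAMP measured by HTRF (665/615 nm), activity normalized between vehicle and maximal control.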

[2] = target: T2, human calcitonin receptor (CTR) (Homo sapiens, UniProt P30988); assay: Calcitonin Receptor (CTR) cAMP Assay; assay type: cell-based; conditions: COS7-human CTR Clone #2 stable cell line, cAMP dynamic 2 kit, 30 min; read-out: Calcitonin Receptor cAMP Stimulation Activity: EC50
T2 construct: expressed in transfected cells; host or cells: COS-7 (COS7-human CTR Clone #2)
T2 sequence (P30988 25-474): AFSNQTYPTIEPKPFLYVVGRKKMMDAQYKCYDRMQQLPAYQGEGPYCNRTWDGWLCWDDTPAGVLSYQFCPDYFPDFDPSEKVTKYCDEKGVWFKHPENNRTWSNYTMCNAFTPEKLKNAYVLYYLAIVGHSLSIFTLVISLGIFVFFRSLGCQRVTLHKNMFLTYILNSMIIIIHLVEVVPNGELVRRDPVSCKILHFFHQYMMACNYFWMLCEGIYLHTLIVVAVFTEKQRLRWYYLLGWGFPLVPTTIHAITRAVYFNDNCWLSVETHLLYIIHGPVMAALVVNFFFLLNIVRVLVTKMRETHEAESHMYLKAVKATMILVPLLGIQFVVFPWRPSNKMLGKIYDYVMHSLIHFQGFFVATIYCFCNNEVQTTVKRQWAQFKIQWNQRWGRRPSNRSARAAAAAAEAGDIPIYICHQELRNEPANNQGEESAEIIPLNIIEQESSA
Summary of the method: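 COS-7 cells stably expressing human CTR (2000 cells/well) were incubated 30 min at 37 °C with 4-fold serially diluted compound in HBSS/20 mM HEPES/0.5 mM IBMX/0.1% casein. cAMP was detected by HTRF (665/615 nm) after 1 h at RT. % activity was normalised to vehicle and positive controls.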

T1 sequence (O60896 24-148, one chain of several): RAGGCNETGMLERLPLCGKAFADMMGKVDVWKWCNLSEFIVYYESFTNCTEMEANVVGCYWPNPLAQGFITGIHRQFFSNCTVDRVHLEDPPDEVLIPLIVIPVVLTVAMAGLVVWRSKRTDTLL

EC50 [1] [nM] | EC50 [2] [nM] | SMILES
1820 | 36.3 | O=C1c2c(nc(CCC34CCC(CC3)OC4)c(-c3n[nH]c(=O)o3)c2-c2cnc3c(ccn3Cc3ncc(Cl)cc3F)c2)[C@@H]2CCCN12 [Compound 233, (S)-5-(2-(2-(2-oxabicyclo[2.2.2]octan-4-yl)ethyl)-4-(1-((5-chloro-3-fluoropyridin-2-yl)methyl)-1H-pyrrolo[2,3-b]pyridin-5-yl)-5-oxo-7,8,9,9a-tetrahydro-5H-pyrido[2,3-a]pyrrolizin-3-yl)-1,3,4-oxadiazol-2(3H)-one]
0.175 | 0.00668 | COc1c(F)c(F)cc2c1CC[C@H]2Nc1nccc2cc(-c3c4c(nc(CCc5ccc(F)cc5)c3-c3n[nH]c(=O)o3)C35CC(CN3C4=O)C5)sc12 [Compound 286, (R)-5-(4-(7-((5,6-difluoro-4-methoxy-2,3-dihydro-1H-inden-1-yl)amino)thieno[2,3-c]pyridin-2-yl)-2-(4-fluorophenethyl)-5-oxo-8,9-dihydro-5H,7H-8,9a-methanopyrido[2,3-a]pyrrolizin-3-yl)-1,3,4-oxadiazol-2(3H)-one]
21.9 | 1.13 | COc1cccc2c1CC[C@H]2Nc1nccc2cc(-c3c4c(nc(CC5CCc6cc(F)ccc65)c3-c3noc(=O)[nH]3)[C@@H]3CCCN3C4=O)sc12 (stereo partly shown) [Compound 128]
273 | 21.5 | O=C(NCc1ccc(F)c(F)c1)c1ccc(-c2c3c(nc(CCc4ccc(F)cc4)c2-c2cc(=O)[nH]o2)[C@@H]2CCCN2C3=O)s1 [Compound 103, (S)—N-(3,4-difluorobenzyl)-5-(2-(4-fluorophenethyl)-5-oxo-3-(3-oxo-2,3-dihydroisoxazol-5-yl)-7,8,9,9a-tetrahydro-5H-pyrido[2,3-a]pyrrolizin-4-yl)thiophene-2-carboxamide]
3.5 | 0.105 | COc1cccc2c1CC[C@H]2Nc1nccc2cc(-c3c(-c4n[nH]c(=O)o4)c(CCc4ccc(F)cc4)nc4c3C(=O)N3C[C@H]5C[C@@]43C5)sc12 [Compound 181, (R)-5-(2-(4-fluorophenethyl)-4-(7-((4-methoxy-2,3-dihydro-1H-inden-1-yl)amino)thieno[2,3-c]pyridin-2-yl)-5-oxo-8,9-dihydro-5H,7H-8,9a-methanopyrido[2,3-a]pyrrolizin-3-yl)-1,3,4-oxadiazol-2(3H)-one]
0.0995 | 0.00616 | COc1c(F)c(F)cc2c1CC[C@H]2Nc1nc(C)cc2cc(-c3c4c(nc(CCc5ccc(F)cc5)c3-c3n[nH]c(=O)o3)C35CC(CN3C4=O)C5)sc12 [Compound 195, (R)-5-(4-(7-((5,6-difluoro-4-methoxy-2,3-dihydro-1H-inden-1-yl)amino)-5-methylthieno[2,3-c]pyridin-2-yl)-2-(4-fluorophenethyl)-5-oxo-8,9-dihydro-5H,7H-8,9a-methanopyrido[2,3-a]pyrrolizin-3-yl)-1,3,4-oxadiazol-2(3H)-one]
648 | 52.8 | CC(C)C1CS(=O)(=O)c2c1nc(CCC1CCOCC1)c(-c1cc(=O)[nH]o1)c2-c1cc2ccnc(N[C@@H]3CCc4ncccc43)c2s1 (stereo partly drawn) [Compound 154, 5-(7-(7-(((R)-6,7-dihydro-5H-cyclopenta[b]pyridin-5-yl)amino)thieno[2,3-c]pyridin-2-yl)-3-isopropyl-1,1-dioxido-5-(2-(tetrahydro-2H-pyran-4-yl)ethyl)-2,3-dihydrothieno[3,2-b]pyridin-6-yl)isoxazol-3(2H)-one]
2.81 | 0.0963 | COc1c(F)ccc2c1CC[C@H]2Nc1nccc2cc(-c3c4c(nc(CCc5ccc(F)cc5)c3-c3n[nH]c(=O)o3)[C@@H]3COCCN3C4=O)sc12 [Compound 262, (R)-4-(7-(((R)-5-fluoro-4-methoxy-2,3-dihydro-1H-inden-1-yl)amino)thieno[2,3-c]pyridin-2-yl)-2-(4-fluorophenethyl)-3-(5-oxo-4,5-dihydro-1,3,4-oxadiazol-2-yl)-7,8,10,10a-tetrahydro-5H-pyrido[2′,3′:3,4]pyrrolo[2,1-c][1,4]oxazin-5-one]

Reference: patent publication US12486269B2 (Aconcagua Bio, Inc., priority 2024, dated 2025)
